Assay results from patent US20140128418A1, “PYRAZOLE DERIVATIVES, PREPARATION METHOD THEREOF, AND COMPOSITION FOR PREVENTING AND TREATING OSTEOPOROSIS CONTAINING SAME” (EWHA UNIVERSITY-INDUSTRY COLLABORATION FOUNDATION, priority 2011, published 2014).

What was measured:
[1] = test system: bone loss induced by ovariectomy; test: Inhibitory effect on bone loss induced by ovariectomy in ovariectomized mouse models (tibia, μ-CT, TRAP staining); assay type: in vivo, female mice; conditions: ovariectomized mice, intraperitoneal for 3 weeks at intervals of 2 days, versus control group 1 (ovariectomy)
Excerpt: In order to examine the inhibitory effects of the compounds on the bone loss induced by ovariectomy in ovariectomized mouse models, 8-week old female mice were divided into control groups 1 and 2 and experimental group 1, each containing 5 mice.
The mice in control group 1 and experimental group 1 were subjected to ovariectomy via laparotomy, and the mice in control group 2 were subjected to laparotomy in the same manner as in control group 1 and experimental group 1, but without ovariectomy, and served as a sham control.
The compound of Example 13 was intraperitoneally administered to the mice of experimental group 1 for 3 weeks at intervals of 2 days after 7 days of recovery from the surgery. After verification of excision of ovary of mice, both tibiae were harvested from the mice of experimental group 1 and control groups 1 and 2, and cross-sections were consecutively imaged using μ-CT (Skyscan 1076, SKYS CAN N. V.) and V-works program (Cybermed) and reconstructed into 3-dimensional images. Then, the bone volume, bone density, and the number of trabecular bones were quantified using an image analysis program.
The experimental results and statistical analysis using ANOVA (one-way analysis of variance) if verify the Newman kulseu (Newman-Keuls test) significance is verified using the […] level or less, a significance test was performed.
In FIG. 9, the bone volume is expressed as a percentage (BV/TV %) of the bone volume (BV) of the harvested tibia to the total bone volume (TV), and in FIG. 11, the number of trabecular bones is expressed as the number of trabecular bones) per 1 millimeter (mm).
Moreover, the harvested tibiae were placed in PBS, formaldehyde added, and fixed for 24 hours and then decalcified in PBS to which was added 0.5 M EDTA. […] Moreover, the number of osteoclasts was analyzed under a microscope using the Osteomeasure software program (Osteometrics Inc., USA), and the results are shown in FIG. 13, in which the quantification of osteoclasts is expressed as the number of osteoclasts per bone surface 1 millimeter (mm). […]

[2] = test system: differentiation of macrophages into osteoclasts; test: Inhibitory effect on differentiation of macrophages into osteoclasts (rhM-CSF/RANKL, TRAP staining); assay type: cell-based, mice (C57BL/6J); conditions: mouse bone marrow macrophages, rhM-CSF 30 ng/mL + RANKL 200 ng/mL, 5 days, light microscope, Examples 2, 3, 7, 8, 9, 11 tested against Comparative Example 1 as control, FIGS. 1 to 6
Description: Bone marrow cells were harvested from 4 to 5-week old male mice (C57BL/6J). Specifically, mice were sacrificed by cervical dislocation, and femur and tibia were extracted while removing muscles adhered around the bone with scissors and soaked in phosphate buffered saline (PBS). A 1 mL syringe filled with α-minimum essential medium (α-MEM) was put into one end of the femur and tibia from which bone marrow cells were then harvested.
The bone marrow cells were cultured to obtain macrophages. Specifically, the obtained bone marrow cells were placed in a 50 mL tube and centrifuged at 1500 rpm for 5 minutes. Then, the supernatant was removed, and a 3:1 mixture of a Gey's solution and PBS was added and maintained at room temperature for about 2 to 3 minutes. After another centrifugation (1500 rpm, 5 minutes), the supernatant was removed, α-MEM was added, followed by stirring, and then the cells were cultured in a 10 cm cell culture dish at 37° C. for 24 hours. After the third centrifugation (1500 rpm, 5 minutes), the supernatant was removed, a culture medium and a macrophage differentiation factor rhM-CSF (30 ng/mL) were added, and then the cells were cultured in a 10 cm cell culture dish at 37° C. for 3 days. After 3 days, macrophages adhered to the dish were scraped and collected in a tube, followed by centrifugation (1500 rpm, 5 minutes). […]

Structure (SMILES) | reduction in bone volume of the tibia (BV/TV %) ([1]; FIG. 9) | bone density of the tibia ([1]; FIG. 10) | number of trabecular bones (per 1 mm) ([1]; FIG. 11) | differentiation of macrophages into osteoclasts [2]
COc1cc(/C=C/c2nn(-c3ccccn3)c(O)c2Cc2ccccc2)ccc1O [Example 13, 1-(pyridin-2-yl)-3-[(3-methoxy-4-hydroxyphenyl)-E-ethenyl]-4-benzyl-1H-pyrazol-5-ol] | less than that in control group 1 | higher | higher | 
Oc1cc(-c2ccccc2)nn1-c1ccccn1 [Comparative Example 1, 3-phenyl-1-(pyridin-2-yl)-1H-pyrazol-5-ol] |  |  |  | more macrophages differentiated into osteoclasts
